In ChEMBL document CHEMBL4732115, “Discovery of novel cell-penetrating and tumor-targeting peptide-drug conjugate (PDC) for programmable delivery of paclitaxel and cancer treatment” (Eur J Med Chem, 2021):
Calls of active or inactive are those of the source. The rule behind the calls is not given here.

Columns and labels:
MCF7 [1] = assay: Cytotoxicity against human MCF7 cells assessed as reduction in cell viability measured after 48 hrs by MTT assay; assay type: functional, cell-based; details: MCF7, 48 h
HT-29 = assay: Cytotoxicity against human HT-29 cells assessed as reduction in cell viability measured after 48 hrs by MTT assay; assay type: functional, cell-based; details: HT-29, 48 h
[2] = Drug uptake in tumor of BALB/c nude mouse xenografted with human MCF7 cells at 8 to 12 umol/kg, ip measured after 2 hrs by LC-MS analysis; assay type: ADME, organism-based, Neoplasm; details: in vivo, dose 8-12 µmol/kg
A2780 = assay: Cytotoxicity against human A2780 cells assessed as reduction in cell viability measured after 48 hrs by MTT assay; assay type: functional, cell-based; details: A2780, 48 h
[3] = Cytotoxicity against human A2780/PTX cells assessed as reduction in cell viability measured after 48 hrs by MTT assay; assay type: functional, cell-based
NCM460 = assay: Cytotoxicity against human NCM460 cells assessed as reduction in cell viability measured after 48 hrs by MTT assay; assay type: cell-based; details: NCM460, 48 h
HEK293 = assay: Cytotoxicity against HEK293 cells assessed as reduction in cell viability measured after 48 hrs by MTT assay; assay type: cell-based; details: Homo sapiens, HEK293, 48 h
[4] = Drug uptake in human MCF7 cells at 20 nM measured after 4 hrs by LC-MS analysis; assay type: ADME, cell-based; details: mcf7, 4 h, 0.02 µM
MCF7 [5] = assay: Induction of apoptosis in human MCF7 cells at IC50 measured after 4 hrs by Annexin-V FITC/propidium iodide staining based flow cytometry; assay type: functional, cell-based
MCF7 [6] = assay: Induction of mitochondrial membrane potential loss in human MCF7 cells at IC50 measured after 4 hrs by JC-1 staining based flow cytometry; assay type: functional, cell-based
MCF7 [7] = assay: Cell cycle arrest in human MCF7 cells assessed as increase in accumulation at G2/M-phase at IC50 measured after 4 hrs by […] flow cytometry; assay type: functional
MCF7 [8] = assay: Antitumor activity against human MCF7 cells xenografted in BALB/c nude mouse assessed as reduction in tumor volume at 12 umol/kg, ip administered every two days for two weeks relative to control; assay type: functional; parameters: scale not given: the % may be the effect or the level left; details: dose 12 µmol/kg; time 2 weeks
MCF7 [9] = assay: Antitumor activity against human MCF7 cells xenografted in BALB/c nude mouse assessed as reduction in tumor weight at 12 umol/kg, ip administered every two days for two weeks relative to control; assay type: functional; parameters: scale not given: the % may be the effect or the level left; details: dose 12 µmol/kg; time 2 weeks
[10] = Neurotoxicity in BALB/c mouse assessed as increase in pain sensitivity at 12 umol/kg, ip administered every two days for 14 days by hot-plate test; assay type: toxicity, organism-based; details: in vivo, 336 h, dose 12 µmol/kg, time 14 day
[11] = Neurotoxicity in BALB/c mouse assessed as increase in pain sensitivity at 12 umol/kg, ip administered every two days for 14 days by hot water tail immersion test; assay type: toxicity, organism-based; details: in vivo, 336 h, dose 12 µmol/kg, time 14 day
[12] = Neurotoxicity in BALB/c mouse assessed as increase in pain sensitivity at 12 umol/kg, ip administered every two days for 14 days by cold water tail immersion test; assay type: toxicity, organism-based; details: in vivo, 336 h, dose 12 µmol/kg, time 14 day
[13] = Neurotoxicity in BALB/c mouse assessed as change in acetylcholine level at 12 umol/kg, ip administered every two days for 14 days measured post last dose by LC-MS analysis; assay type: toxicity, organism-based; details: in vivo, 336 h, dose 12 µmol/kg, time 14 day
[14] = Neurotoxicity in BALB/c mouse assessed as change in DOPAC level at 12 umol/kg, ip administered every two days for 14 days measured post last dose by LC-MS analysis; assay type: toxicity, organism-based; details: in vivo, 336 h, dose 12 µmol/kg, time 14 day
[15] = Neurotoxicity in BALB/c mouse assessed as change in dopamine level at 12 umol/kg, ip administered every two days for 14 days measured post last dose by LC-MS analysis; assay type: toxicity, organism-based; details: in vivo, 336 h, dose 12 µmol/kg, time 14 day
[16] = Neurotoxicity in BALB/c mouse assessed as change in GABA level at 12 umol/kg, ip administered every two days for 14 days measured post last dose by LC-MS analysis; assay type: toxicity, organism-based; details: in vivo, 336 h, dose 12 µmol/kg, time 14 day
[17] = Neurotoxicity in BALB/c mouse assessed as change in glutamate level at 12 umol/kg, ip administered every two days for 14 days measured post last dose by LC-MS analysis; assay type: toxicity, organism-based; details: in vivo, 336 h, dose 12 µmol/kg, time 14 day
[18] = Neurotoxicity in BALB/c mouse assessed as change in glutamine level at 12 umol/kg, ip administered every two days for 14 days measured post last dose by LC-MS analysis; assay type: toxicity, organism-based; details: in vivo, 336 h, dose 12 µmol/kg, time 14 day
[19] = Neurotoxicity in BALB/c mouse assessed as change in histamine level at 12 umol/kg, ip administered every two days for 14 days measured post last dose by LC-MS analysis; assay type: toxicity, organism-based; details: in vivo, 336 h, dose 12 µmol/kg, time 14 day
[20] = Neurotoxicity in BALB/c mouse assessed as change in histidine level at 12 umol/kg, ip administered every two days for 14 days measured post last dose by LC-MS analysis; assay type: toxicity, organism-based; details: in vivo, 336 h, dose 12 µmol/kg, time 14 day
[21] = Neurotoxicity in BALB/c mouse assessed as change in noradrenaline level at 12 umol/kg, ip administered every two days for 14 days measured post last dose by LC-MS analysis; assay type: toxicity, organism-based; details: in vivo, 336 h, dose 12 µmol/kg, time 14 day
[22] = Neurotoxicity in BALB/c mouse assessed as change in serotonin level at 12 umol/kg, ip administered every two days for 14 days measured post last dose by LC-MS analysis; assay type: toxicity, organism-based; details: in vivo, 336 h, dose 12 µmol/kg, time 14 day
[23] = Neurotoxicity in BALB/c mouse assessed as change in vanillylmandelic acid level at 12 umol/kg, ip administered every two days for 14 days measured post last dose by LC-MS analysis; assay type: toxicity, organism-based; details: in vivo, 336 h, dose 12 µmol/kg, time 14 day

With H-FFRKLKKSV-NH2 the IC50 (MCF7 [1]) was > 50 µM and the IC50 (HT-29) was > 50 µM.
In the case of H-RFKKFFRKL-NH2, the IC50 (MCF7 [1]) is reported as > 50 µM and the IC50 (HT-29) is reported as > 50 µM.
For H-KRFKKFFRK-NH2, the IC50 (MCF7 [1]) was > 50 µM and the IC50 (HT-29) was > 50 µM.
With `CC(=O)O[C@H]1C(=O)[C@@]2(C)[C@H]([C@H](OC(=O)c3ccccc3)[C@]3(O)C[C@H](OC(=O)[C@H](O)[C@@H](NC(=O)c4ccccc4)c4ccccc4)C(C)=C1C3(C)C)[C@]1(OC(C)=O)CO[C@@H]1C[C@@H]2O` [PACLITAXEL] the Drug uptake [2] was “Active”, the IC50 (MCF7 [1]) was 0.0066 µM and the IC50 (HT-29) was 0.0086 µM. It also gave an IC50 (A2780) of 0.0152 µM, an IC50 [3] of 23.9 µM and an IC50 (NCM460) of 0.0092 µM. For the same compound, the IC50 (HEK293) was 0.0163 µM, the Drug uptake [4] was “Active” and the Activity (MCF7 [5]) was “Active”. For the same compound, the Activity (MCF7 [6]) was “Active”, the Activity (MCF7 [7]) was “Active” and the Activity (MCF7 [8]) was 75.7%. The Activity (MCF7 [9]) was 65.7%, the Activity [10] was “Toxic” and the Activity [11] was “Toxic”. The Activity [12] was “Toxic”, the Activity [13] was “Toxic” and the Activity [14] was “Toxic”. For the same compound, the Activity [15] was “Toxic”, the Activity [16] was “Toxic” and the Activity [17] was “Toxic”. For the same compound, the Activity [18] was “Toxic”, the Activity [19] was “Toxic” and the Activity [20] was “Toxic”. For the same compound, the Activity [21] was “Toxic”, the Activity [22] was “Toxic” and the Activity [23] was “Toxic”.
With H-VKRFKKFFRKLKKSV-NH2 the IC50 (MCF7 [1]) was 18.2 µM and the IC50 (HT-29) was 15.1 µM.
With H-VKRFKKFFR-NH2 the IC50 (MCF7 [1]) was > 50 µM and the IC50 (HT-29) was > 50 µM.
In the case of H-KFFRKLKKS-NH2, the IC50 (MCF7 [1]) is reported as > 50 µM and the IC50 (HT-29) is reported as > 50 µM.
With H-FKKFFRKLK-NH2 the IC50 (MCF7 [1]) was > 50 µM and the IC50 (HT-29) was > 50 µM.
For H-KKFFRKLKK-NH2, the IC50 (MCF7 [1]) was > 50 µM and the IC50 (HT-29) was > 50 µM.
